Data: US10413518B2, “CYP450 lipid metabolites reduce inflammation and angiogenesis” (Massachusetts Eye and Ear Infirmary, priority 2013, dated 2019)

How the values were obtained:
[1] = system: peripheral blood leukocytes (PBLs) on P-selectin and ICAM-1; assay: Autoperfused microflow chamber assay, chamber coated with P-selectin and ICAM-1; type: in vivo; details: metabolite administered to mice with laser-induced CNV; for Leucocyte rolling: FIGS. 9A-D
Description: Autoperfused microflow chamber assay. Leukocyte rolling velocity was analyzed using the autoperfused microflow chamber assay.^33,43 In brief, translucent microchambers (0.4×0.04×50 mm; VitroCom) were coated overnight at 4° C. with either recombinant murine P-selectin, or combination P-selectin and ICAM1 (R&D Systems) at a concentration of 5 μg/ml each. The microchambers were then connected at both ends to biocompatible polyester tubing (PE10, Becton Dickinson). Thereafter, both the tubing and microchamber were incubated with 0.1% bovine serum albumin (Sigma-Aldrich) for 1 h to block nonspecific leukocyte interaction with their inner surfaces. The free ends of the tubing were then connected microsurgically to the right carotid artery and left jugular vein of an anesthetized mouse. In this system, blood flows from the carotid artery into the biocompatible inlet tubing, passes through the microchamber, and reenters the animal's body via the outlet tubing and jugular vein. The rate of blood flow is regulated by adjustment of the diameter of the inlet tubing with a screw valve. Microtransducers (Harvard Apparatus) attached to the chamber by three-way connectors embedded before and after the microchamber allow the continuous measurement of blood pressure. The analog output of the microtransducers unit was digitalized with an A/D converter (ML785 PowerLab/8SP, ADInstruments) connected to a PC computer running CHART V7 software (ADInstruments). The measured values at the inlet and outlet of the microchamber were used to calculate the pressure drop (ΔP). […] Ten different fields of view were recorded for at least 30 seconds. Leukocyte rolling velocity was determined from the displacement of individual cells interacting with the chamber surface over time (Δd/Δt). The displacement of leukocytes was determined using image J software 1.46 (NIH). Flux was defined as the number of interacting leukocytes per field of view, averaged over 10 independent field of views. To account for the hemodynamic conditions within the chamber, the blood pressure before the inlet and after the outlet of the chamber was measured, from which the drop of pressure Δp and the shear stress were derived

laser-induced CNV [2] = assay: Laser-induced CNV, cross-sectional lesion area by SD-OCT; type: in vivo, mice; details: 7 days after CNV induction; for Protection from laser-induced CNV (SD-OCT): intraperitoneal daily, 5 or 50 μg/kg/day, vs vehicle
Description: (§1) Laser-induced model of CNV. Laser photocoagulation was performed 2 weeks after the onset of feeding with the ω-3 or ω-6 LCPUFA diets with the use of a 532-nm laser (Oculight GLx Laser System, IRIDEX) attached to a slitlamp, with a coverslip being used to applanate the cornea in order to afford a view of the posterior pole of the eye. Four lesions located at the 3, 6, 9, and 12 o'clock meridians centered on the optic nerve (size and leakage studies) or 10 lesions (protein and mRNA analysis) were induced in both eyes with the same settings: spot size of 100 μm, pulse duration of 0.1 s, and laser power of 100 mW.^25 The lesions were located two or three disc diameters from the optic nerve. Laser-induced disruption of Bruch's membrane was identified by the appearance of a bubble at the site of photocoagulation. […] One investigator executed all laser photocoagulation.
Spectral domain optical coherence tomography (SD-OCT). SD-OCT was performed with a Bioptigen system at 5 and 7 days after laser photocoagulation. Mice were anesthetized with Avertin (Sigma) and positioned on a custom cassette that allowed three-dimensional free rotation for alignment of the eye for imaging. Hydration with normal saline was used to preserve corneal clarity. The B-scan were performed with 100 horizontal, raster, and consecutive B-scan lines, each one composed of 1000 A-scans. The area size was 1.4 by 1.4 mm. The software was able to generate an en face fundus image with the reflectance information obtained from the OCT sections (volume intensity projection), so that a point-to-point correlation between OCT and fundus position was possible and accurate. For evaluation of the cross-sectional size of each lesion in OCT images, the sections passing through the center of the CNV were chosen. […] We narrowed and positioned it to the level of the retinal pigment epithelium—choroid complex, so that the area of the retinal pigment epithelium—Bruch's membrane rupture was readily identifiable in the fundus image as a hyporeflective spot.^25

laser-induced CNV [3] = assay: Laser-induced CNV, lesion size in choroidal flat-mounts stained with isolectin B4; type: in vivo, mice; details: 7 days after CNV induction; for Protection from laser-induced CNV (choroidal flatmount): intraperitoneal daily, 5 or 50 μg/kg/day, vs vehicle
Description: as §1
Choroid flat-mount preparation. For evaluation of the size of CNV lesions, mice were anesthetized with Avertin (Sigma) and sacrificed by cervical dislocation at 5 or 7 days after laser photocoagulation. The eyes were removed and fixed in 4% paraformaldehyde for 60 min at room temperature, the cornea and lens were removed, and the entire retina was carefully dissected from the eyecup. Radial cuts (average, eight) were made from the edge of the eyecup to the equator, and the preparation was then washed with ice-cold PBS containing 0.3% Tween 20.^41 For visualization of vessels, the eyecup was stained overnight at room temperature with Alexa Fluor 488—conjugated Griffonia (Bandeiraea) simplicifolia isolectin B4 (Invitrogen) at a dilution of 1:100. The eyecup was flat-mounted on Superfrost/Plus microscope slides (Fisher) in SlowFade Antifade reagent (Invitrogen) with the sclera facing down and the choroid facing up. Fluorescence images of choroidal flat-mounts were captured with a Zeiss AxioCam MRm camera and Zeiss AxioObserver.Z1 microscope. The CNV area was measured with the use of Image J software.

laser-induced CNV [4] = assay: Laser-induced CNV, vascular leakage by fluorescein angiography; type: in vivo, mice; details: 7 days after CNV induction; for Vascular leakage after CNV induction: intraperitoneal daily, 5 or 50 μg/kg/day, vs vehicle
Description: as §1
Fluorescein angiography. Fluorescein angiography was performed with a camera and imaging system (TRC 50 VT camera and IMAGEnet 1.53 system,
Topcon) at 5 and 7 days after laser photocoagulation. Photographs were captured with a 20-diopter lens in contact with the fundus camera lens after intraperitoneal injection of 0.1 ml of 2% fluorescein sodium (Akorn). […] Lesions were graded according to a previously established scheme as follows: 0 (not leaky), faint hyperfluorescence or mottled fluorescence without leakage; 1 (questionable leakage), hyperfluorescent lesion without progressive increase in size or intensity; 2A (leaky), hyperfluorescence increasing in intensity but not in size; 2B (clinically significant leakage), hyperfluorescence increasing in intensity and in size.^42

CD18 = assay: Flow cytometric analysis of CD18 on PBLs; type: in vivo, mice; details: metabolite administered, laser-induced CNV model
Description: (§2) Isolation of PBLs for flow cytometric analysis. Blood freshly collected from the mouse heart with an EDTA-treated syringe was incubated for 30 min on ice with phycoerythrin-conjugated rat monoclonal antibodies to CD11b (M1/70, BD Biosciences) or to CD18 (C71/16, BD Biosciences), or with isotype control antibodies, at a ratio of 1 μg per 1×10^6 total cells. Red blood cells were lysed with the use of Easy-Lyse (Leinco Technologies), and the remaining cells were isolated by centrifugation and resuspended in PBS on ice for immediate flow cytometric analysis. PBLs were gated according to their characteristic forward and side scatter with the use of a Cytomics FC500 instrument (Beckman Coulter), and data were analyzed with FlowJo 10.0 software […].

CD11b = assay: Flow cytometric analysis of CD11b on PBLs; type: in vivo, mice; details: metabolite administered, laser-induced CNV model
Description: as §2

PPARγ = PPARγ activity in retinal nuclear extracts (ELISA-based TransAM kit); type: in vivo; details: ω-3-fed mice, IP daily 1 mg/kg, 7 days after CNV induction
Description: Measurement of PPARγ activity. The retinas (n=8) of mice were pooled to reduce biological variability and were homogenized in an ice-cold hypotonic buffer (ActiveMotif) for preparation of a nuclear fraction. The nuclear extract (20 μg of protein) was assayed for PPARγ activity with the use of an ELISA-based TransAM kit (ActiveMotif).

[5] = ω-3 LCPUFA diet, IP daily 1 mg/kg

SMILES	Leucocyte rolling [1]	Protection from laser-induced CNV (SD-OCT) (laser-induced CNV [2])	Protection from laser-induced CNV (choroidal flatmount) (laser-induced CNV [3])	Vascular leakage after CNV induction (laser-induced CNV [4])	Systemic leukocyte recruitment during CNV [1]	further results
CCCCC/C=C\C/C=C\CC1OC1C/C=C\CCCC(=O)O (stereo not shown) [8,9-EET, reference compound]	increased leucocyte rolling	–	–	–	–	–
CCCCC/C=C\C[C@H]1O[C@H]1C/C=C\C/C=C\CCCC(=O)O [11,12-EET, reference compound]	increased leucocyte rolling	–	–	–	–	–
CCCCCC1OC1C/C=C\C/C=C\C/C=C\CCCC(=O)O (stereo not shown) [14,15-EET, reference compound]	increased leucocyte rolling	–	–	–	–	–
CCC1OC1C/C=C\C/C=C\C/C=C\C/C=C\CCCC(=O)O (stereo not shown) [17,18-EEQ, 17,18-epoxyeicosatetraenoic acid]	decreased rolling	significant and dose-dependent protection	significant and dose-dependent protection	significantly decreased	reduces	CD18 in peripheral blood leukocytes (CD18): suppresses
CCC1OC1CC=CCC=CCC=CCC=CCC=CCCC(=O)O (stereo not shown) [19,20-EDP, 19,20-epoxydocosapentaenoic acid]	decreased rolling	significant protection	significant protection	significant protection	reduces	CD11b in peripheral blood leukocytes (CD11b): suppresses
O=C(Nc1ccccc1)c1cc([N+](=O)[O-])ccc1Cl [GW9662, reference compound]	–	–	–	–	–	Activity of PPARγ in the retina (PPARγ): significantly reduces; Effect on the protective effects of ω3-LCPUFAs on CNV size (SD-OCT) (laser-induced CNV [2]; [5]): significantly reduces; Effect on the protective effects of ω3-LCPUFAs on CNV size (choroidal flat-mount) (laser-induced CNV [3]; [5]): significantly reduces; Effect on the protective effects of ω3-LCPUFAs on leakage (laser-induced CNV [4]; [5]): significantly reduces
